Test results published in patent US7659399B2, “1-thia-2,4a-diaza-cyclopenta[b]napththalene-3,4-diones and related compounds as anti-infective agents” (Achillion Pharmaceuticals, Inc., priority 2005, dated 2010).
Structures can show the parent of a compound that is named as a salt.

Key:
[1] = target: T1, S. aureus topoisomerase IV (Staphylococcus aureus, UniProt P0C1S7+P0C1U9); experiment: Topoisomerase IV decatenation assay; format: biochemical; conditions: decatenation of kinetoplast DNA; read-out: inhibition of S. aureus topoisomerase IV activity IC50
T1 construct: made in house; host or cells: E. coli
T1 sequence (P0C1U9 whole entry): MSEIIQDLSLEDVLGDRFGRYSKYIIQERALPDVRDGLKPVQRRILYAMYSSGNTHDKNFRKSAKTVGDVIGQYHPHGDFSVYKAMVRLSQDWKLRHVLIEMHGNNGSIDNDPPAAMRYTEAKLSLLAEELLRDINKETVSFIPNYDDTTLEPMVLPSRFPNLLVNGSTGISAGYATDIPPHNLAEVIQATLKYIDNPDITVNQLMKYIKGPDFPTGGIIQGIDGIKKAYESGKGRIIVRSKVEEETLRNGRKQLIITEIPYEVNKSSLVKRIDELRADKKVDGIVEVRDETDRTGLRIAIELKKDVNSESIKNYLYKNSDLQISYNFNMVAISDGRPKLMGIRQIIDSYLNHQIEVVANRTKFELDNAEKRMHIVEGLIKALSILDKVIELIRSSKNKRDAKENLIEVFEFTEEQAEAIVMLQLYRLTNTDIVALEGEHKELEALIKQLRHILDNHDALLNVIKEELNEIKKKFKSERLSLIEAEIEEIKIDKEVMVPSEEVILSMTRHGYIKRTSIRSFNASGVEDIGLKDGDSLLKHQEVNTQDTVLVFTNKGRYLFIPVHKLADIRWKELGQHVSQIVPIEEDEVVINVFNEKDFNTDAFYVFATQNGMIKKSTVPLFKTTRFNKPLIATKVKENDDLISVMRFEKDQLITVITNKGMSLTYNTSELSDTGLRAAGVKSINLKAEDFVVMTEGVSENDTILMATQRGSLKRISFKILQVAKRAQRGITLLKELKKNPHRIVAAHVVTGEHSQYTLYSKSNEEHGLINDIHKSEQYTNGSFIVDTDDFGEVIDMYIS
T1 sequence (P0C1S7 whole entry): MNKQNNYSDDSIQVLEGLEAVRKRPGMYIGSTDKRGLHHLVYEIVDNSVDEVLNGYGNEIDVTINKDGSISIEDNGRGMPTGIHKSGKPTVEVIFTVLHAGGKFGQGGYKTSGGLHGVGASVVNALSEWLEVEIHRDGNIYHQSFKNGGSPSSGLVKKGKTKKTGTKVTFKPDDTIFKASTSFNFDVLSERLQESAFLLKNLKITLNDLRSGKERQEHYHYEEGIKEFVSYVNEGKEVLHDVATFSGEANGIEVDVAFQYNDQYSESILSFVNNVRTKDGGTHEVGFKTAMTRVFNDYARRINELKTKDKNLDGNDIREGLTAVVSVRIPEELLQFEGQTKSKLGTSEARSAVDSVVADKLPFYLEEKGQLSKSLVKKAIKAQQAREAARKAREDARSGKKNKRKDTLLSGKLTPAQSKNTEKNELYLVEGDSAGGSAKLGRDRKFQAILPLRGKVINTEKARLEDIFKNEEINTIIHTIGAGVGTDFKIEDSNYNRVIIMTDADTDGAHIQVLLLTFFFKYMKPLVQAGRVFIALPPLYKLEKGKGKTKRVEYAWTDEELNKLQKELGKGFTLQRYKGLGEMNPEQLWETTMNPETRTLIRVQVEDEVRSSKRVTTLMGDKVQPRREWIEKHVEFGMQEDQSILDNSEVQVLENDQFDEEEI
Protocol: Enzyme activity is measured by a decatenation assay that monitors the ATP-dependent unlinking of DNA minicircles from kinetoplast DNA. Analysis is done by gel electrophoresis through 1% agarose/TBE gel. DNA is visualized with an Alpha Imager 2200 Analysis System and the IC50 determined by nonlinear regression analysis with Graphpad Prism software. S. aureus topoismerase IV enzyme subunits, grlA and grlB, are purified to homogeneity from over-expression plasmids in E. coli.

S. aureus ATCC 29213 = experiment: Minimum inhibitory concentration (MIC) assay, broth microdilution; format: cell-based; conditions: Staphylococcus aureus, ATCC29213
Protocol: (§1) The antimicrobial activity of the compounds of the invention may be evaluated by a number of methods, including the following visual minimum inhibitory concentration (MIC) assay. This assay determines the minimum concentration of compound required to inhibit growth of a bacterial strain.
(§2) Whole-cell antibacterial activity is determined by broth microdilution using conditions recommended by the National Committee for Clinical Laboratory Standards (NCCLS).
(§3) Test compounds are dissolved in DMSO and diluted 1:50 in Mueller-Hinton II broth (Becton-Dickinson) to produce a 256 μg/ml stock solution. In a 96-well microtiter plate, the compound solution is serially two-fold diluted in Mueller-Hinton II broth. After the compounds are diluted, a […] aliquot of the test organism (˜1×10^6 cfu/mL) is added to each well of the microtiter plate. The final test concentrations range from 0.125-128 μg/mL. Inoculated plates are incubated in ambient air at 37° C. for 18 to 24 hours. The organisms selected for testing included laboratory strains S. aureus ATCC 29213 and E. coli ATCC 25922 (strains purchased from American Type Culture Collection, Manassas, Va.). The minimum inhibitory concentration (MIC) was determined as the lowest concentration of compound that inhibited visible growth of the test organism.

E. coli ATCC 25922 = experiment: as above; format: cell-based; conditions: Escherichia coli, ATCC25922
Protocol: as §1, §2, §3

E. coli DNA gyrase = target: T2, E. coli DNA gyrase (Escherichia coli, UniProt P0AES4+P0AES6); experiment: DNA gyrase supercoiling assay; format: biochemical
T2 construct: made in house; host or cells: E. coli
T2 sequence (P0AES4 whole entry, one chain of several): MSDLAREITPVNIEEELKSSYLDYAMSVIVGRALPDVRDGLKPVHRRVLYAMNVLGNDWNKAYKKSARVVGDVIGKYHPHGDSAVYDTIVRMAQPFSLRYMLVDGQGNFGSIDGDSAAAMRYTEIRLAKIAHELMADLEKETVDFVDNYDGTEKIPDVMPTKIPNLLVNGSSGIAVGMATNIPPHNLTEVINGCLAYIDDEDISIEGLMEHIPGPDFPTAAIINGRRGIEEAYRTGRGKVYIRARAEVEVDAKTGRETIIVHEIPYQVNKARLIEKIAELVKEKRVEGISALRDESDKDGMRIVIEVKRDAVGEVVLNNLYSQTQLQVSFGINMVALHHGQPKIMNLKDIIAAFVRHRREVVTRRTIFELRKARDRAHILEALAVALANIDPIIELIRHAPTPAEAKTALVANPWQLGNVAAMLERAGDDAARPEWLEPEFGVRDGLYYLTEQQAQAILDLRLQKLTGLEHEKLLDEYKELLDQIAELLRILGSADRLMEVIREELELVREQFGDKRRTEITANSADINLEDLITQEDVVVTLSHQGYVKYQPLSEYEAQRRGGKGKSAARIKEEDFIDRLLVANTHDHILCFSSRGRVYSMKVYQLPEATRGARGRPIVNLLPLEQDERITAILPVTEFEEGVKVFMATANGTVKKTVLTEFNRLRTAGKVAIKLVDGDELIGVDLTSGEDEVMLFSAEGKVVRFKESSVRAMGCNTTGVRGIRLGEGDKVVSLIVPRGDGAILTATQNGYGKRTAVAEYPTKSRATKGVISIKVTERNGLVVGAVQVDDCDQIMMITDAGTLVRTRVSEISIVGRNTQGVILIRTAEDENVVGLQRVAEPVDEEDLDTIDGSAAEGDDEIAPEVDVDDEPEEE
Protocol: Enzyme activity is measured by a supercoiling assay that monitors the ATP-dependent conversion of relaxed pBR322 DNA to the supercoiled form. Analysis is done by gel electrophoresis through 1% agarose/TBE gel. DNA is visualized with an Alpha Imager 2200 Analysis System and the IC50 determined by nonlinear regression analysis with Graphpad Prism software. E. coli DNA gyrase enzyme subunits, gyrA and gyrB, are purified to homogeneity from over-expression constructs in E. coli.

S. aureus DNA gyrase = S. aureus DNA gyrase (Staphylococcus aureus, UniProt P0A0K8+P20831); experiment: DNA gyrase supercoiling assay; format: biochemical; conditions: do not inhibit
S. aureus DNA gyrase, sequence (P20831 whole entry): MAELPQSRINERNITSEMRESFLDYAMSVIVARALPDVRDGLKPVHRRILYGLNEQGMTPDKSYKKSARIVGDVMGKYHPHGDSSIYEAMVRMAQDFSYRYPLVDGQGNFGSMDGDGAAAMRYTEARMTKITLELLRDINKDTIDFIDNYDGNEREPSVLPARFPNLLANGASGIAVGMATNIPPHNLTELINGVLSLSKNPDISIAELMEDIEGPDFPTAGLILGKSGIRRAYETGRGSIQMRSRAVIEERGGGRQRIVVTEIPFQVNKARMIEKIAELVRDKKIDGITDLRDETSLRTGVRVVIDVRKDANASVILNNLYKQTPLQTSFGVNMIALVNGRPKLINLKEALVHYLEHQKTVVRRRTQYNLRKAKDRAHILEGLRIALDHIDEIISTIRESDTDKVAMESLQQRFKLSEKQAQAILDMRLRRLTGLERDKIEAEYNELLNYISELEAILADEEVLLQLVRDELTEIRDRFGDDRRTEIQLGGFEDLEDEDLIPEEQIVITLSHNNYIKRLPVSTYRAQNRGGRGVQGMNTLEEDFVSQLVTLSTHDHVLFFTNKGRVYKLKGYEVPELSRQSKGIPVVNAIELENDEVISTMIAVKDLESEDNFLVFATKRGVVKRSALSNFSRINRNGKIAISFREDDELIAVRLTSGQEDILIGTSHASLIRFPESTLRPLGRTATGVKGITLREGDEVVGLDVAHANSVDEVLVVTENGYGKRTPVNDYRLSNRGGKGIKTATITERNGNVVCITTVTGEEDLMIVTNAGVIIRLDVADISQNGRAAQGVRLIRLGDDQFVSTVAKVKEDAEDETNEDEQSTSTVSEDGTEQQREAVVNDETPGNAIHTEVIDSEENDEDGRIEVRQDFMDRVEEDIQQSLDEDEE
S. aureus DNA gyrase, sequence (P0A0K8 whole entry): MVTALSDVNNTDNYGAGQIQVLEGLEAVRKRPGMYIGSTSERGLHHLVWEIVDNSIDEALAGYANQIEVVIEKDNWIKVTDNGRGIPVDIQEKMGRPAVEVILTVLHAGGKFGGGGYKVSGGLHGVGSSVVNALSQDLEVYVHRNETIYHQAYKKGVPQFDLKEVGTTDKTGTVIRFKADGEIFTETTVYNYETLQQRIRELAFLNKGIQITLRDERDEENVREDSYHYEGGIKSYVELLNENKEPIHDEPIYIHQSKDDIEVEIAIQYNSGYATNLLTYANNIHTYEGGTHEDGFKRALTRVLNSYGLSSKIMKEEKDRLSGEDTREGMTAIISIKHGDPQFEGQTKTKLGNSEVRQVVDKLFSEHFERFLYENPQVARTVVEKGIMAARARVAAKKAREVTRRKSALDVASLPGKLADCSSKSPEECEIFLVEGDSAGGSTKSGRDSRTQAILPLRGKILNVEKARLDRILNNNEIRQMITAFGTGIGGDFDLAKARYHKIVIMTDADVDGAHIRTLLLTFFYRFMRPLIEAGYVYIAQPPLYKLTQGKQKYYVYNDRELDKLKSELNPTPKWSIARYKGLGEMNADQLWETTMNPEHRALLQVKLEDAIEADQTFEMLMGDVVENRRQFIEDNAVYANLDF

[2] = system: HEP 2 (laryngeal carcinoma); conditions: HEP 2 cells; positive control, known CC50; cited from earlier work
[3] = system: CHO (Chinese hamster ovary); conditions: CHO cells; positive control, known CC50; cited from earlier work

Row | Structure (SMILES) | IC50 [1] | MIC (S. aureus ATCC 29213) | MIC (E. coli ATCC 25922) | IC50 (E. coli DNA gyrase) | IC50 (S. aureus DNA gyrase) | melting point | CC50 [2] | CC50 [3]
1 | CCc1c2s[nH]c(=O)c2c(=O)n2ccc(-c3ccncc3)cc12 [Compound 8, 9-Ethyl-7-pyridin-4-yl-1-thia-2,4a-diaza-cyclopenta[b]naphthalene-3,4-dione hydrochloride] | < 10 µM | 10 µg/mL | 10 µg/mL | < 1 µM | > 200 µM | – | – | –
2 | CCc1c2s[nH]c(=O)c2c(=O)n2ccc(-c3cc(C)nc(C)c3)cc12 (as salt: hydrochloride) [Compound 9, 7-(2,6-Dimethylpyridin-4-yl)-9-ethyl-1-thia-2,4a-diaza-cyclopenta[b]naphthalene-3,4-dione hydrochloride] | – | – | – | – | – | 279 to 280 °C (dec.) | – | –
3 | CC(C)(C)c1ccc(C(O)CCCN2CCC(C(O)(c3ccccc3)c3ccccc3)CC2)cc1 (centres unmarked) [Terfenadine] | – | – | – | – | – | – | 3 to 5 µM | 4.3 to 6.5 µM
4 | CCc1c2s[nH]c(=O)c2c(=O)n2ccc(-c3cc(C)nc(C)c3)cc12 [Compound 9, 7-(2,6-Dimethylpyridin-4-yl)-9-ethyl-1-thia-2,4a-diaza-cyclopenta[b]naphthalene-3,4-dione hydrochloride] | < 10 µM | 10 µg/mL | 10 µg/mL | < 1 µM | > 200 µM | – | – | –
5 | CCc1c2s[nH]c(=O)c2c(=O)n2ccc(-c3ccncc3)cc12 (as salt: hydrochloride) [Compound 8, 9-Ethyl-7-pyridin-4-yl-1-thia-2,4a-diaza-cyclopenta[b]naphthalene-3,4-dione hydrochloride] | – | – | – | – | – | 289 to 290 °C (dec.) | – | –
